Values quoted from earlier work in US11589578B2, “Painting with biocides composition and/or prolonged release pesticides” (priority 2018, dated 2023).
Like-named read-outs stand apart in the source and are kept apart here.

Conditions: for Stability in aqueous media, in words: pH as stated in the value

**Q.** For `O=C(NC(=O)c1c(F)cccc1F)Nc1ccc(Cl)cc1` [Diflubenzuron], which “Behaviour at pH 9, in words” value (aqueous media, pH 9) is on record?
**A.** The value was “Hydrolyzes”.

**Q.** What does the source list for `C=CCC1=C(C)C(OC(=O)C2C(C=C(C)C)C2(C)C)CC1=O` [D-allethrin]?
**A.** Decomposition time (Average life) (aqueous media, pH 7): 500 days; Decomposition time (Average life) (aqueous media, pH 9): (4.3 days); Stability in aqueous media, in words: Stable at a pH 5 after 31 days

**Q.** With `CC1(C)C(C=C(Cl)Cl)C1C(=O)OC(C#N)c1cccc(Oc2ccccc2)c1` (stereo not shown) [cypermethrin] as the molecule, how does the “Decomposition time (Average life)” value (aqueous media, pH 9) read?
**A.** Its value is 7 days.

**Q.** Which “Decomposition time (Average life)” value (aqueous media, pH 5) does the source give for `CCOP(=S)(OCC)Oc1cc(C)nc(C(C)C)n1` [Diazinon] here?
**A.** The value was 31 days.

**Q.** What about the “Decomposition time (Average life)” value (aqueous media, pH 7.5) of the same molecule?
**A.** The value was 185 days.

**Q.** And the “Decomposition time (Average life)” value (aqueous media, pH 9)?
**A.** Its value is 136 days.

**Q.** What does the source list for `CC1(C)[C@H](C(=O)O[C@H](C#N)c2cccc(Oc3ccccc3)c2)[C@@H]1C=C(Br)Br` [deltamethrin]?
**A.** Decomposition time (Average life) (aqueous media, pH 7): 0.33 days; Stability in aqueous media, in words: more stable in medium acid solutions

**Q.** For `CCN(CC)c1nc(C)cc(OP(=S)(OC)OC)n1` [Methylperimiphos], which “Decomposition time (Average life)” value (aqueous media, pH 5) is on record?
**A.** Its value is 7 days.

**Q.** And the “Decomposition time (Average life)” value (aqueous media, pH 8)?
**A.** The value was 5 days.

**Q.** For `CCOP(=S)(OCC)Oc1nc(Cl)c(Cl)cc1Cl` [Chlorpyrifos], which “Decomposition time (Average life)” value (aqueous media, pH 10) is on record?
**A.** The value was 7 days.
